The source of these data is US9469674B2 (HAINAN UNIVERSITY, dated 2016).

Where a SMILES comes first, the peptide text is derived from it. Bridges are numbered along the chain shown (N, C = ends).

For one test, the target named is human α6/α3β2β3 nAChR (Homo sapiens, UniProt P17787+P32297+Q15825). The test can be described thus: cell-based. Format: cell-based.
Another test deals with α6/α3β4 nAChR (Rattus norvegicus, UniProt P04757+P12392+P43143). The test can be described thus: cell-based. It is filed as cell-based.
Another test addresses α2β2 nAChR (Rattus norvegicus, UniProt P12389+P12390). Description: cell-based. It is filed as cell-based.
The target of another test is α7 nAChR (Rattus norvegicus, UniProt Q05941). The test can be described thus: cell-based. It is filed as cell-based.
For a further test, the target named is α4β4 nAChR (Rattus norvegicus, UniProt P09483+P12392). The test can be described thus: cell-based. Format: cell-based.
Chain of α4β4 nAChR (P09483 31-630 limits assumed): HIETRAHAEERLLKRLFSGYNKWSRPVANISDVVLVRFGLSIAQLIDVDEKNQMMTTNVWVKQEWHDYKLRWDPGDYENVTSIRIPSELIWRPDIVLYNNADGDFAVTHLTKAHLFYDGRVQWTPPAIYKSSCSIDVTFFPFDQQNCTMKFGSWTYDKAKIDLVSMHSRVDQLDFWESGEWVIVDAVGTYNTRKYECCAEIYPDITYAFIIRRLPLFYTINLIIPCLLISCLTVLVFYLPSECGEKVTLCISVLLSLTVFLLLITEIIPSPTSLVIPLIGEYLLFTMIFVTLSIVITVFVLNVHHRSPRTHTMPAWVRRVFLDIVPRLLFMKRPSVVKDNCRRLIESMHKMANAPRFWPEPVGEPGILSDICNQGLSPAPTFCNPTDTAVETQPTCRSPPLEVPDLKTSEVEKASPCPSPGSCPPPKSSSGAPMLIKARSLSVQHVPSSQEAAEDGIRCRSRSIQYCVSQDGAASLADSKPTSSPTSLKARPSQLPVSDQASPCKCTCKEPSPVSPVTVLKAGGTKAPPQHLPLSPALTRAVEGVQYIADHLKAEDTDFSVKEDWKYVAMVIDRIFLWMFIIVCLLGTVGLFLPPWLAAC
Chain of α4β4 nAChR (P12392 21-495 limits assumed): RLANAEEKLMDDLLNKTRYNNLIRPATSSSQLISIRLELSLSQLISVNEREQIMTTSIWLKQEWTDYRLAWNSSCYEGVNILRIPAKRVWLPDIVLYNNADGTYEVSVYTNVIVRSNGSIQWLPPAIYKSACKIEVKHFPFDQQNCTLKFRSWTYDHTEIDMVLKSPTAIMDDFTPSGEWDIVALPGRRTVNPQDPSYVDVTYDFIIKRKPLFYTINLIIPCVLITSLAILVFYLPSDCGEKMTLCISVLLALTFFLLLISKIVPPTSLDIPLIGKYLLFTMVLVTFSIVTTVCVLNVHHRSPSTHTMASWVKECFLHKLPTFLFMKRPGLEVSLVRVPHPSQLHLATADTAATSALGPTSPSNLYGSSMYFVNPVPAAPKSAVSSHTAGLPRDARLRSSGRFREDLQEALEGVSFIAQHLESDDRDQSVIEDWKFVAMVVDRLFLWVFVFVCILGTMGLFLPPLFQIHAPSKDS
The target in another test is α6/α3β2β3 nAChR (Rattus norvegicus, UniProt P04757+P12390+P43143). The test can be described thus: cell-based. It is filed as cell-based.
Chain of α6/α3β2β3 nAChR (P04757 whole entry, looked up): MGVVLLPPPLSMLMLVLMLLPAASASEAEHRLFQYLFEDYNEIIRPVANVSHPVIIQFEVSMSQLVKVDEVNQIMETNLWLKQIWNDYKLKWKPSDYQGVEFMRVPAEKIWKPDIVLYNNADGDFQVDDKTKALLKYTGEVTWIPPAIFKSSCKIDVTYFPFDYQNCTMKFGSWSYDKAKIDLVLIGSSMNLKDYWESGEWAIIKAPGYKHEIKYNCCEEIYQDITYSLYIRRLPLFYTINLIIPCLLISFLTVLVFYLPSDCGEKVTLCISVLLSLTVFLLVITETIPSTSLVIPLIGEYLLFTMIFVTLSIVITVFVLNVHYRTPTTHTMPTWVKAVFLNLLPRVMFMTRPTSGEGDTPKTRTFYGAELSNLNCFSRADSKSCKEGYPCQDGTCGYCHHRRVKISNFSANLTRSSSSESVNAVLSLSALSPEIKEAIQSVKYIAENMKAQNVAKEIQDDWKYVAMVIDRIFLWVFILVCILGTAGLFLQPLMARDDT
Chain of α6/α3β2β3 nAChR (P12390 whole entry, looked up): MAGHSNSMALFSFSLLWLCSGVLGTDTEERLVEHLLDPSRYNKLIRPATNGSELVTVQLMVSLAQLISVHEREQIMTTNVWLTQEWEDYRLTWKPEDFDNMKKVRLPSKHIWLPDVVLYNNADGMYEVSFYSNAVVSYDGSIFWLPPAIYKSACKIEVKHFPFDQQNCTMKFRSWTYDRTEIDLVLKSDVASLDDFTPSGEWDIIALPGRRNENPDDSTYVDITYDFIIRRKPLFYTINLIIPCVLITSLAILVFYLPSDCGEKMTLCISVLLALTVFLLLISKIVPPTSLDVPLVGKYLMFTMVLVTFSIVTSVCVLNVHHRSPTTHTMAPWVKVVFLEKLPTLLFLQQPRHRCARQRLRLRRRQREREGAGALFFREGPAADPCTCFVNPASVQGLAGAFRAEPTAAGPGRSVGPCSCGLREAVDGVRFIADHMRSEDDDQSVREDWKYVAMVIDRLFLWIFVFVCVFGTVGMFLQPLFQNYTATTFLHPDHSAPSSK
Chain of α6/α3β2β3 nAChR (P43143 whole entry, looked up): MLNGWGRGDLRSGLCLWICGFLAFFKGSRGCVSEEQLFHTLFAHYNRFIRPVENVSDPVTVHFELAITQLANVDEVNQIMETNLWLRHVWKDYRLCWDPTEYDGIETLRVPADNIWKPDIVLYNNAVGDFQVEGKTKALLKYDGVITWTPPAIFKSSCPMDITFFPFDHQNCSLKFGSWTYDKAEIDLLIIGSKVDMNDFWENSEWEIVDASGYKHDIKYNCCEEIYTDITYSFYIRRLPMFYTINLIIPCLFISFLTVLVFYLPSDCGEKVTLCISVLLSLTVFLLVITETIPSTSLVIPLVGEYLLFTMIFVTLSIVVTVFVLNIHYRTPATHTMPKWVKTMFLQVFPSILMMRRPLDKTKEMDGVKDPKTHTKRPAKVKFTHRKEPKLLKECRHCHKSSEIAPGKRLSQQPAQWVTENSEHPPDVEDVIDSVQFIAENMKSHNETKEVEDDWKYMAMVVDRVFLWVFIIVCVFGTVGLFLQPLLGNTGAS
In the next test the target is α2β4 nAChR (Rattus norvegicus, UniProt P12389+P12392). The test can be described thus: cell-based. It is filed as cell-based.
The target in another test is α3β4 nAChR (Rattus norvegicus, UniProt P04757+P12392). Description: cell-based. Format: cell-based.
Chain of α3β4 nAChR (P04757 26-499 limits assumed): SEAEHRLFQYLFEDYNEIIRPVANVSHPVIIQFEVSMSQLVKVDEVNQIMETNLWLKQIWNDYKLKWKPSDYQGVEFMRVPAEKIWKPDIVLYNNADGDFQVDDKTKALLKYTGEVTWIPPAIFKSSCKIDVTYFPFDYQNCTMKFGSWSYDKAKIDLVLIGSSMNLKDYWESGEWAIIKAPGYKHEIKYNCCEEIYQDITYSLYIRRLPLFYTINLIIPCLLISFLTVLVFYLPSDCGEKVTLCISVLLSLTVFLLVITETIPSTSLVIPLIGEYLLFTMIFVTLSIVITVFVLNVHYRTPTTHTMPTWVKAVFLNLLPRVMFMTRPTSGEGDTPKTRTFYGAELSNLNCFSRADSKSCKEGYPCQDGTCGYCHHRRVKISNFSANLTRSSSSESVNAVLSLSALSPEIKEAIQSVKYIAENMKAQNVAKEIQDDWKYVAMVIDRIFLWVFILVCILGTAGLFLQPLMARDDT
Chain of α3β4 nAChR (P12392 21-495 limits assumed): as the sequence (P12392 21-495 limits assumed) above
In another test the target is α9α10 nAChR (Rattus norvegicus, UniProt P43144+Q9JLB5). The test can be described thus: cell-based.
In the next test the target is α4β2 nAChR (Rattus norvegicus, UniProt P09483+P12390). The test can be described thus: cell-based.
Chain of α4β2 nAChR (P09483 31-630 limits assumed): as the sequence (P09483 31-630 limits assumed) above
Chain of α4β2 nAChR (P12390 25-500 limits assumed): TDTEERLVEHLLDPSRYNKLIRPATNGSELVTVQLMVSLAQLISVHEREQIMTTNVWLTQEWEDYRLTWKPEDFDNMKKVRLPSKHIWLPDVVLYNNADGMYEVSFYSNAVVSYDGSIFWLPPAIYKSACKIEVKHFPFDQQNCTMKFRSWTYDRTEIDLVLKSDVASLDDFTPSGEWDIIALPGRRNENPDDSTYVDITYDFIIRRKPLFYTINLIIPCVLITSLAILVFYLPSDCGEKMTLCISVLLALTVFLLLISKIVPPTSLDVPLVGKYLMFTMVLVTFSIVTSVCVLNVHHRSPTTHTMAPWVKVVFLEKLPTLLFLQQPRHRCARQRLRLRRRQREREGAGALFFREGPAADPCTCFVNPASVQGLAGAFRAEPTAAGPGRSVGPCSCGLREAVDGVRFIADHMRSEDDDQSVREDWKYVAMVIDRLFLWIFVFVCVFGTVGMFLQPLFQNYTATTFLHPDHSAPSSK
For a further test, the target named is α3β2 nAChR (Rattus norvegicus, UniProt P04757+P12390). Description: cell-based. Format: cell-based. The settings on record: IC50 (half-blocking dose).
Chain of α3β2 nAChR (P04757 26-499 limits assumed): as the sequence (P04757 26-499 limits assumed) above
Chain of α3β2 nAChR (P12390 25-500 limits assumed): as the sequence (P12390 25-500 limits assumed) above
The target of test [1] is α6/α3β2β3 acetylcholine receptor. The settings on record: read-out: half-blocking dose IC50; cited from earlier work.
In test [2] the target is α3β2 acetylcholine receptor (Homo sapiens, UniProt P17787+P32297). The settings on record: read-out: half-blocking dose IC50; cited from earlier work.
Chain of α3β2 acetylcholine receptor (P32297 32-505 limits assumed): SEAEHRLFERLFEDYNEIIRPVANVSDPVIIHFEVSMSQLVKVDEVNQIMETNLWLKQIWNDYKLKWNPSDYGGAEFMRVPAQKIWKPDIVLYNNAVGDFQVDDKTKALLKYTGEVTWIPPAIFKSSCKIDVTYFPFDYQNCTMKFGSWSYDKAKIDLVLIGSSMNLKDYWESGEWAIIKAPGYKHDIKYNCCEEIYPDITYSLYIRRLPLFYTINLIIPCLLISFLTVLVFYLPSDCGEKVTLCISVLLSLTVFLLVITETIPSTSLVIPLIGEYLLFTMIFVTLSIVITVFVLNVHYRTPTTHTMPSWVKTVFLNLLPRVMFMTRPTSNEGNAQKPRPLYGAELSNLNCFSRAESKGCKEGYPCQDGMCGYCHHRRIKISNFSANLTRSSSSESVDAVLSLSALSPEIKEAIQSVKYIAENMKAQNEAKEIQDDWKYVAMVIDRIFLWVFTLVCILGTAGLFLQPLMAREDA
Chain of α3β2 acetylcholine receptor (P17787 26-502 limits assumed): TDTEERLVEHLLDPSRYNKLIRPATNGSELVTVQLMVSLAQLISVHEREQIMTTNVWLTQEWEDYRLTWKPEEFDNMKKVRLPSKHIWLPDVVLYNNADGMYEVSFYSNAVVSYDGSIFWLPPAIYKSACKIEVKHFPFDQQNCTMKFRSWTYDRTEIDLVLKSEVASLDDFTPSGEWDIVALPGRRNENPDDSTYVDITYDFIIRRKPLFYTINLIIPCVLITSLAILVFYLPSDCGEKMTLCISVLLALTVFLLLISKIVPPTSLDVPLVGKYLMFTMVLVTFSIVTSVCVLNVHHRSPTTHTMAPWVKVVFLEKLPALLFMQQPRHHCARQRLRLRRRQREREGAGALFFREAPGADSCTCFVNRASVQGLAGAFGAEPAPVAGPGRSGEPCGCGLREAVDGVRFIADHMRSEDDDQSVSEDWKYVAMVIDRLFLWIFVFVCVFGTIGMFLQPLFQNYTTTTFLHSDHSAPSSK
Test [3] addresses α9α10 acetylcholine receptor (Homo sapiens, UniProt Q9GZZ6+Q9UGM1). The settings on record: read-out: half-blocking dose IC50; cited from earlier work.
Test [4] concerns the target α6/α3β4 acetylcholine receptor. The conditions noted are these: read-out: half-blocking dose IC50; cited from earlier work.
Test [5] has as its target α3β4 acetylcholine receptor. The settings on record: read-out: half-blocking dose IC50; cited from earlier work.
The target of test [6] is α7 acetylcholine receptor (Homo sapiens, UniProt P36544). The conditions noted are these: read-out: half-blocking dose IC50; cited from earlier work.

Broadly, the IC50 is the midpoint of a concentration-inhibition curve. For `CC(C)C[C@@H]1NC(=O)[C@H](CC(=O)O)NC(=O)[C@@H]2CCCN2C(=O)[C@H](Cc2c[nH]cn2)NC(=O)[C@H](CCCCN)NC(=O)[C@H](CC(N)=O)NC(=O)[C@H](CCCNC(=N)N)NC(=O)[C@@H]2CSSC[C@H](NC(=O)CN)C(=O)N[C@@H](CSSC[C@@H](C(=O)NCC(N)=O)NC1=O)C(=O)N[C@@H](CO)C(=O)N[C@@H](CC(=O)O)C(=O)N1CCC[C@H]1C(=O)N1CCC[C@H]1C(=O)N2` [TxIB(G)] (H-GCCSDPPCRNKHPDLCG-NH2; disulfide 2-8, 3-16), the “blocking activity on human α6/α3β2β3 nAChR” value on human α6/α3β2β3 nAChR is listed as “blocking activity similar to those for rat α6/α3β2β3 nAChR”. Further, the IC50 is above 10000 nM against α6/α3β4 nAChR; above 10000 nM against α2β2 nAChR; above 10000 nM at α7 nAChR; above 10000 nM on α4β4 nAChR; 247 nM on α6/α3β2β3 nAChR; above 10000 nM at α2β4 nAChR. Besides, the IC50 against α3β4 nAChR, against α9α10 nAChR, at α4β2 nAChR and against α3β2 nAChR was above 10000 nM each time. Besides, the “Ratio of half-blocking dose (IC50) between TxIB(G) and TxIB” value on α6/α3β2β3 nAChR amounted to 8.7.

As to `CC(C)C[C@@H]1NC(=O)[C@H](CC(=O)O)NC(=O)[C@@H]2CCCN2C(=O)[C@H](Cc2cnc[nH]2)NC(=O)[C@H](CCCCN)NC(=O)[C@H](CC(N)=O)NC(=O)[C@H](CCCNC(=N)N)NC(=O)[C@@H]2CSSC[C@H](NC(=O)CN)C(=O)N[C@@H](CSSC[C@@H](C(N)=O)NC1=O)C(=O)N[C@@H](CO)C(=O)N[C@@H](CC(=O)O)C(=O)N1CCC[C@H]1C(=O)N1CCC[C@H]1C(=O)N2` [TxIB] (H-GCCSDPPCRNKHPDLC-NH2; disulfide 2-8, 3-16), the IC50 at α6/α3β4 nAChR is above 10000 nM; on α2β2 nAChR, above 10000 nM; on α7 nAChR, above 10000 nM; on α4β4 nAChR, above 10000 nM; against α6/α3β2β3 nAChR, 28.4 nM; against α2β4 nAChR, above 10000 nM. In addition, the half-maximal inhibitory concentration (IC50) against α3β4 nAChR, at α9α10 nAChR, against α4β2 nAChR and at α3β2 nAChR was above 10000 nM each time.

As to GCCSDPRCNYDHPEIC* [Vc1.1], the IC50 in [1] is 140 nM; in test [2], 7300 nM; in [3], 19 nM; in test [4], 980 nM.

For the molecule GCCSHPACNVNNPHIC* [RegIIA], the values for the IC50 in test [2], in test [5] and in [6] were 33 nM, 97 nM and 103 nM, respectively.

As to GCCSHPACSVNHPELC* [PeIA], the IC50 in test [2] was 23 to 97.5 nM; in test [3] it was 6.9 to 54.9 nM; in test [5], 480 nM; in test [6], 1800 nM.

Turning to GCCSYPPCFATNP-DC* [AuIB], the IC50 in test [5] is 750 nM.

With RDPCCSNPVCTVHNPQIC* [PIA], the IC50 in [1] was 1 to 1.7 nM; in test [2] it was 74.2 nM; in test [5], 518 nM; in test [4], 12.6 to 30.5 nM.
